The values below come from ChEMBL document CHEMBL5537108, “A comprehensive review on the global efforts on vaccines and repurposed drugs for combating COVID-19” (Eur J Med Chem, 2023).

Where a name gives a salt, the structure may show the parent alone.

Assay type in all cases: functional, organism-based
The subject of assay [1] is Ebolavirus. Kind of assay: Antiviral activity against EBOV infected in human Huh-7 cells assessed as reduction in viral replication. The following applies: Orthoebolavirus.
The test system of assay [2] is SARS-CoV-2. The assay is described as follows: Antiviral activity against SARS-CoV-2 infected in African green monkey Vero cells assessed as reduction in virus-induced cytopathic effect incubated for 5 days by microscopic analysis. The note with it: Severe acute respiratory syndrome coronavirus 2, Vero, 120 h. (In general: Damage to the host cells serves as the signal in cytopathic effect assays.)

The test system of assay [3] is Ebolavirus. The assay is described as follows: Antiviral activity against Ebola virus infected in African green monkey Vero cells incubated for 3 days by immunofocus assay. The following applies: Orthoebolavirus, 72 h.
The test system of assay [4] is SARS-CoV-2. Kind of assay: Antiviral activity against SARS-CoV-2 B.1.1.7 infected in human Calu-3 cells assessed as inhibition of viral infection measured after 48 hrs by Hoechst 33342 staining based analysis. The following applies: Severe acute respiratory syndrome coronavirus 2, B.1.1.7, Calu-3, 48 h.
The subject of assay [5] is Middle East respiratory syndrome-related coronavirus. Kind of assay: Antiviral activity against MERS-CoV infected in human Calu-3 cells assessed as inhibition of viral growth by infection assay.
In assay [6] the test system is SARS-CoV-2. Kind of assay: Antiviral activity against SARS-CoV-2 infected in African green monkey Vero cells assessed as reduction in viral replication measured after 72 hrs by qRT-PCR analysis. The following applies: Severe acute respiratory syndrome coronavirus 2, Vero. Background: In qPCR the cycle at which signal appears reflects the starting amount.
For assay [7], the system named is Middle East respiratory syndrome-related coronavirus. The assay is described as follows: Antiviral activity against MERS-CoV infected in african green monkey Vero E6. The following applies: Vero C1008.
The subject of assay [8] is SARS-CoV-2. Kind of assay: Antiviral activity against SARS-CoV-2 NRC-03-nhCoV infected in african green monkey Vero E6 cells assessed as inhibition of virus-induced cytopathic effect measured after 72 hrs by crystal violet staining based assay. The following applies: Severe acute respiratory syndrome coronavirus 2, NRC-03-nhCoV, Vero C1008, 72 h.

A word on the EC50: it is the concentration needed to bring the measured effect to its halfway point.

For `CCC(CC)COC(=O)[C@H](C)N[P@](=O)(OC[C@H]1O[C@@](C#N)(c2ccc3c(N)ncnn23)[C@H](O)[C@@H]1O)Oc1ccccc1`, the EC50 with Ebolavirus [1] came out at 61.9 µM; in the assay on SARS-CoV-2 [2] it was 0.01 µM; with Ebolavirus [3], 0.77 µM; with SARS-CoV-2 [4], 67 µM.
Turning to `CN(C)C(=O)COC(=O)Cc1ccc(OC(=O)c2ccc(NC(=N)N)cc2)cc1` [CAMOSTAT], the half-maximal effective concentration (EC50) in assay [5] was found to be 0.005 µM.
With `CC(C)c1nc(CN(C)C(=O)N[C@H](C(=O)N[C@@H](Cc2ccccc2)C[C@H](O)[C@H](Cc2ccccc2)NC(=O)OCc2cncs2)C(C)C)cs1` [RITONAVIR], the EC50 in the assay with SARS-CoV-2 [6] was determined as 8.63 µM.
`CN1CCN(CCOc2cc(OC3CCOCC3)c3c(Nc4c(Cl)ccc5c4OCO5)ncnc3c2)CC1` [SARACATINIB] showed an EC50 in assay [7] of 10 µM.
`N=C(N)Nc1ccc(C(=O)Oc2ccc3cc(C(=N)N)ccc3c2)cc1` [NAFAMOSTAT MESYLATE]: the concentration giving a half-maximal response (EC50) in assay [5] is 0.087 µM.
Turning to `Cc1nc(Nc2ncc(C(=O)Nc3c(C)cccc3Cl)s2)cc(N2CCN(CCO)CC2)n1` [DASATINIB ANHYDROUS], in the assay on SARS-CoV-2 [8], the 50% effective concentration (EC50) is 2.1 µM.
As to `Cc1cccc(C)c1OCC(=O)N[C@@H](Cc1ccccc1)[C@@H](O)C[C@H](Cc1ccccc1)NC(=O)[C@H](C(C)C)N1CCCNC1=O` [LOPINAVIR], the concentration for a half-maximal effect (EC50) in the assay with SARS-CoV-2 [6] was 5.73 µM.
